Experimental data from US6518458B1, “(Aminoiminomethyl) amino) alkane-carboxamides and their applications in therapy” (Merck Patent GmbH, priority 1999, dated 2003).
Counter-ions that a name gives are not always drawn. Like-named read-outs stand apart in the source and are kept apart here.

How the values were obtained:
Nostz rat = experiment: Antidiabetic activity in the Nostz rat (non-insulin-dependent diabetes induced using streptozotocin); type: in vivo; conditions: po, 2 h, blood 2 h after final administration, diabetic rats, read-out: percentage change in glycaemia relative to d0 (before treatment); for change in vivo at 20 mg/kg: 20 mg/kg/d oral; for change in vivo at 200 mg/kg: 200 mg/kg/d oral
Description: The antidiabetic activity of the compounds of formula (I) was determined orally on an experimental model of non-insulin-dependent diabetes induced in the rat using streptozotocin.
The model of non-insulin-dependent diabetes is obtained in rats by neonatal injection (on the day of birth) of streptozotocin.
The diabetic rats used are 8 weeks old. The animals are kept from the day of their birth to the day of the experiment in an animal house at a regulated temperature of from 21 to 22° C. and are subjected to a fixed cycle of light (from 7.00 am to 7.00 pm) and darkness (from 7.00 pm to 7.00 am). Their diet consisted of a maintenance diet; water and food were provided ad libitum, except for the 2 hours fasting prior to the tests in which food is withdrawn (post-absorptive state).
The rats are treated orally for one (d1) or four (d4) days with the test product. Two hours after the final administration of the product and 30 minutes after anaesthesia of the animals with sodium pentobarbital (Nembutalo®), […] of blood is sampled from the end of the tail.

| melting point [°C] | SMILES | change in vivo at 20 mg/kg (Nostz rat; d1 (one day of treatment)) [%] | change in vivo at 20 mg/kg (Nostz rat; d4 (four days of treatment)) [%] | change in vivo at 200 mg/kg (Nostz rat; d1 (one day of treatment)) [%] | change in vivo at 200 mg/kg (Nostz rat; d4 (four days of treatment)) [%] |
| --- | --- | --- | --- | --- | --- |
| 249 to 251 | CSc1cc(C)nc(SC)c1NC(=O)CNC(=N)N (as salt: HCl) [Example 3] | – | – | – | – |
| 255 to 257 | Cc1cccc(C)c1NC(=O)CNC(=N)N [Example 1] | -3 | -7 | -20 | -24 |
| 227 to 229 | Cc1cccc(C)c1NC(=O)CN(C)C(=N)N (as salt: HCl) [Example 5] | – | – | – | – |
| 181 to 183 | N=C(N)NCC(=O)Nc1c(Cl)cccc1Cl (as salt: HCl) [Compound 12] | – | – | – | – |
| 159 to 161 | Cc1cccc(C)c1NC(=O)[C@H](C)NC(=N)N (as salt: HCl) [Compound 6] | – | – | – | – |
| 260 to 262 | CC(C)c1cccc(C(C)C)c1NC(=O)CNC(=N)N (as salt: HCl) [Compound 2] | – | – | – | – |
| 144 to 146 | N=C(N)NCC(=O)NCc1ccccc1 (as salt: HCl) [Compound 15] | – | – | – | – |
| > 260 | Cc1cc(C)c(NC(=O)CNC(=N)N)c(C)c1 (as salt: HCl) [Compound 7] | – | – | – | – |
| 217 to 219 | N=C(N)NCC(=O)N(Cc1ccccc1)Cc1ccccc1 (as salt: HCl) [Compound 11] | – | – | – | – |
| 223 to 225 | Cc1cccc(C)c1NC(=O)CCNC(=N)N [Example 4] | -1 | -11 | -13 | -15 |

The next lines start with the molecule.

| SMILES | melting point [°C] | change in vivo at 20 mg/kg (Nostz rat; d1 (one day of treatment)) [%] | change in vivo at 20 mg/kg (Nostz rat; d4 (four days of treatment)) [%] | change in vivo at 200 mg/kg (Nostz rat; d1 (one day of treatment)) [%] | change in vivo at 200 mg/kg (Nostz rat; d4 (four days of treatment)) [%] |
| --- | --- | --- | --- | --- | --- |
| CCC(C)[C@H](NC(=N)N)C(=O)Nc1c(C)cccc1C (stereo partly drawn) [Compound 8] | – | -11 | -14 | -8 | -10 |
| Cc1cccc(C)c1NC(=O)[C@H](C(C)C)N(C)C(=N)N [Compound 10] | – | -13 | -15 | -3 | -16 |
| N=C(N)NCC(=O)Nc1c(Cl)cccc1Cl [Compound 12] | – | -9 | -13 | -14 | -27 |
| Cc1cccc(C)c1NC(=O)CN(C)C(=N)N [Example 5] | – | -2 | -7 | -16 | -25 |
| Cc1cccc(C)c1NC(=O)[C@H](C)NC(=N)N [Compound 6] | – | 8 | -3 | -4 | -18 |
| Cc1cc(C)c(NC(=O)CNC(=N)N)c(C)c1 [Compound 7] | – | -9 | -9 | -3 | -10 |
| Cc1cccc(C)c1NC(=O)[C@H](CC(C)C)NC(=N)N [Compound 9] | – | -4 | -15 | 7 | -4 |
| N=C(N)NCC(=O)N(Cc1ccccc1)Cc1ccccc1 [Compound 11] | – | -14 | -9 | -3 | -16 |
| CSc1cc(C)nc(SC)c1NC(=O)CNC(=N)N [Example 3] | – | 7 | -7 | -5 | -4 |
